In US20210346460A1, “TREATMENTS FOR COVID-19-RELATED SYSTEMIC SCLEROSIS, VASCULAR INSUFFICIENCY, DISTAL ISCHEMIA, AND RELATED DISEASE CONDITIONS” (priority 2020, published 2021):
Entries after “also recorded” stand apart in the source; their conditions may differ. Like-named read-outs stand apart in the source and are kept apart here.

How the values were obtained:
[1] = cited from earlier work
[2] = test system: pregnant uterine arteries; test: PGI2 release in pregnant uterine arteries
Text: (§1) Accordingly, as may be observed, there is an inverse relationship depending on the vascular circuit.
(§2) With reference to FIGS. 5A and 5B, the inventor's laboratory data indicates the presence of GABA-a receptors in both systemic vessels and uterine vessel in pregnant animals. […] It may be noted that the third and last columns of FIG. 5A and the last two columns of FIG. 5B reflect competition on the GABA-a receptor between GABA and bicuculine. GABA improves PGI2 response substantially more in the absence of GABA-a receptor competition (e.g., bicuculine); and GABA with bicuculine improves PGI2 response substantially more than bicuculine alone.
(§3) With reference to FIG. 6, the inventor's laboratory data further illustrates that when the endothelium is removed from the pregnant uterine and systemic vessels, respectively, the PGI2 release trends that had been seen in the intact vessels is reversed. As may be observed, PGI2 release in pregnant uterine vessels is reduced in the presence of AII when the endothelium is removed; inversely, PGI2 release in pregnant systemic vessels is increased in the presence of AII when the endothelium is removed.
FIG. 1A illustrates an Ouabain Dose Response Curve (“ODRC”) in pregnant uterine tissue. […] This may indicate inactivity of the GABA-a/AT1 construct without Taurine. It may have been expected that substantially less PGI2 would be released without AII than with AII. […] This may indicate an active GABA-a/AT1 construct under such conditions. […] Accordingly, the inventor has surmised that non-pregnant normotensive systemic vessel behave similarly to pregnant uterine vessels when exposed to Ouabain, releasing higher levels of PGI2 in the presence of GABA and AII.
This increase in PGI2 release in the presence of higher Ouabain may explain the EO resistance noted in pregnancy.

[3] = test system: intact nonpregnant systemic vessels; test: PGI2 release in intact nonpregnant systemic vessels (GABA dose response curves); set-up: species or system sheep; conditions: for PGI2 levels on addition of Nanomolar Ouabain: most concentrations of GABA
Text: In FIGS. 2A-2C, GABA dose response curves of systemic vessels in 18 day postpartum sheep are provided. These vessels are believed to be representative of non-pregnant normotensive systemic vessels. […] Accordingly, it appears that at least one of Taurine or EO (or the like) may be needed to up-regulate the GABA-a receptor to augment PGI2 levels in the presence of nanomolar ouabain, or may at least be substantially helpful to increase PGI2 levels.
In FIG. 2C, the systemic vessels react to variable GABA in a similar manner as pregnant uterine vessels (see, e.g., FIG. 1B), but only in the presence of Ouabain.
Accordingly, the inventor has unexpectedly discovered that Ouabain exposure may modulate the PGI2 response through interaction with the GABA-a/AT1 construct.

[4] = test system: pregnant systemic arteries; test: PGI2 release in pregnant systemic arteries
Text: During experimentation between uterine vessels and systemic vessels during pregnancy, an inverse response between uterine and systemic vessels and their levels of PGI2 release was found. […] Pregnant uterine vessels, however, required GABA and angiotensin II to increase PGI2. The inventor has surmised that this mechanism is likely feto-productive in cases of hemorrhage and low blood volume during pregnancy. During these times, AII increases, dilating the uterine circuit and constricting the systemic circuit, thereby allowing the maternal blood to pass by the baby, prolonging the baby's chances of survival.
as §1, §2, §3

Cyclooxygenase (COX) = conditions: humans or rats, pharmacological blockade of COX; cited from earlier work

CCCCOC(=O)NS(=O)(=O)c1sc(CC(C)C)cc1-c1ccc(Cn2ccnc2)cc1 [C21]
Blood pressure ([1]; eHTN humans): not shown to reduce blood pressure

NCCCC(=O)O [GABA]
PGI2 release on addition of GABA ([2]; pregnant uterine arteries, GABA alone, no AII (FIG. 5B col. 2)): insignificant effect on PGI2 release
PGI2 release on addition of GABA and AII ([2]; pregnant uterine arteries, GABA with AII (FIG. 5B col. 1)): increased PGI2 release
Blood pressure ([1]; normotensive patients): no effect
PGI2 response to GABA ([3]; 18 day postpartum sheep systemic vessels, no EO or Taurine (FIG. 2A)): no PGI2 response
PGI2 release on exposure to GABA ([4]; pregnant systemic vessels, absence of angiotensin II): increased PGI2 release

C[C@@H]1O[C@@H](O[C@H]2C[C@@H](O)[C@]3(CO)[C@H]4[C@H](O)C[C@]5(C)[C@@H](C6=CC(=O)OC6)CC[C@]5(O)[C@@H]4CC[C@]3(O)C2)[C@H](O)[C@H](O)[C@H]1O [Ouabain]
PGI2 release with increase in Ouabain ([2]; pregnant uterine vessels, Ouabain from 10^−10 M to 10^−9 M, low taurine, GABA approx. −7 M (FIGS. 4A, 4B)): higher PGI2 release
PGI2 levels on addition of Nanomolar Ouabain ([3]; with AII, no Taurine (FIG. 2C)): significant increase in PGI2 levels
PGI2 levels on addition of Nanomolar Ouabain ([3]; without AII, no Taurine (FIG. 2B)): significant increase in PGI2 levels

NCCS(=O)(=O)O [Taurine, 2-amino-ethane sulfonic acid]
Overall PGI2 release with versus without Taurine ([2]; pregnant uterine arteries, regardless of AII presence (FIG. 1A vs 1B)): overall PGI2 release appears higher without Taurine

CC(=O)Oc1ccccc1C(=O)O [aspirin]
Resting blood pressure (Cyclooxygenase (COX)): does not substantially affect resting blood pressure

CN1CCc2cc3c(cc2[C@H]1[C@@H]1OC(=O)c2c1ccc1c2OCO1)OCO3 [bicuculine]
PGI2 release on blocking GABA-a receptors ([2]; pregnant uterine arteries, even when additional GABA was added (FIG. 5B)): reduced PGI2 release in both circuits; also recorded: substantially reduced PGI2 release
PGI2 release on blocking GABA-a receptors ([4]; pregnant systemic vessels (FIG. 5A)): reduced PGI2 release in both circuits

COc1ccc2c(c1)c(CC(=O)O)c(C)n2C(=O)c1ccc(Cl)cc1 [indomethacin]
Resting blood pressure (Cyclooxygenase (COX)): does not substantially affect resting blood pressure

Angiotensin II [AII]
Effect of presence or absence of AII on PGI2 release ([2]; pregnant uterine arteries, GABA provided, without taurine, various levels of Ouabain (FIG. 1A)): negligible effect on PGI2 release
PGI2 release on further addition of AII ([2]; pregnant uterine arteries, bicuculine and GABA present (FIG. 5B col. 4)): even further decreased PGI2
PGI2 release with versus without AII ([2]; pregnant uterine circuit, most levels of GABA, no Taurine, no Ouabain (FIG. 3A)): more PGI2 is released in the presence of AII
PGI2 release in the presence of AII, endothelium removed ([2]; pregnant uterine vessels, endothelium removed (FIG. 6)): reduced
PGI2 formation by presence or absence of Angiotensin II ([3]; 18 day postpartum sheep, intact systemic vessels exposed to GABA, without Taurine or EO (FIG. 2A)): no significant PGI2 formation
PGI2 release on addition of AII ([3]; in the presence of Ouabain, especially at higher concentrations of GABA (FIGS. 2B vs 2C)): substantially more PGI2 release
Relationship between PGI2 release and AII presence ([4]; pregnant systemic circuit, various GABA levels, compared with uterine circuit (FIG. 3B)): substantially inverted
PGI2 release in the presence of AII, endothelium removed ([4]; pregnant systemic vessels, endothelium removed (FIG. 6)): increased
